How the values were obtained:
breast cancer = test: Clinical effect in patients receiving 5-FU plus high-dose (6R,S)-leucovorin with L-serine or glycine; format: in vivo, human; details: person; L-serine i.v. added to 5-FU/(6R,S)-leucovorin, subsequently glycine 10 grams i.v.
Description: As noted previously (see pages 5-6) and mentioned in C. P. Spears, et al., Proc. Am. […] Clin. Oncol. 8:69 (1989), the inventors have used pharmacologic intervention to convert intracellular FH4 to CH2 FH4 in patients receiving high-dose reduced folate therapy combined with weekly i.v. bolus 5-FU, 450 mg/sq. m. The method used was administration of i.v. L-serine, 15.0 grams, over 1 hour after the end of overnight high-dose (6R,S)-leucovorin i.v. infusion.

gastrointestinal cancers = details: human, in vivo; cited from earlier work
[1] = test system: CH2 FH4 and FH4 in breast cancer biopsies; test: CH2 FH4 and FH4 levels in breast cancer biopsies during L-serine infusion after high-dose (6R,S)-leucovorin; format: in vivo, human; parameters: CH2 FH4 / FH4: unit not given here
Description: As noted previously (see pages 5-6) and mentioned in C. P. Spears, et al., Proc. Am. Soc. Clin. Oncol. 8:69 (1989), the inventors have used pharmacologic intervention to convert intracellular FH4 to CH2 FH4 in patients receiving high-dose reduced folate therapy combined with weekly i.v. bolus 5-FU, 450 mg/sq. m. The method used was administration of i.v. L-serine, 15.0 grams, over 1 hour after the end of overnight high-dose (6R,S)-leucovorin i.v. infusion.
In contrast to the data shown in Tables II and III, the inventors were able to also assay for intratumoral FH4 in addition to CH2 FH4 (this latter is also referred to as "FBC" in those Tables or Folate-Binding Capacity), at time points during this pharmacologic forcing of metabolism of FH4 to CH2 FH4 through the enzyme, serine hydroxymethyltransferase. This enzyme splits a carbon of L-serine to generate formaldehyde in the presence of FH4.
^a Minutes after initiation of 15.0 gram LSerine i.v. 60min infusion,
after end of overnight (6R,S)leucovorin highdose i.v. infusion.
^b Assays performed as described (C.P. Spears et al., Adv. Exp. Med.

[2] = cited from earlier work
TS = TS assay in liver tumors of rats bearing transplanted hepatic colonic carcinoma; format: in vivo, rat; details: 30 mg/kg each; 24 h after last injection; control 18.96
Excerpt: (§1) The present inventors have considerable experience with this model, and the antitumor effects of 5-FU shown are typical results, as are the TS and folate assays of control and 5-FU-only-treated rats. […] In fact, the "free TS" levels in the (6R,S)-FH4 -only-treated rats were the lowest of all arms of the study.
(§2) ^b Inoculation of 1 × 10^6 viable colon tumor
(§3) (nitrosoguanidineinduced) cells under the liver capsule on Day 1 (Carlsso
(§4) et al., Anticancer Res. 10:813-16 (1990)). Animals sacrificed on Day 17
(§5) for excision of single liver tumor nodules for pharmacodynamic studies.
(§6) ^d Assays done as described (Spears et al. Adv. Exp. Med. Biol.

[3] = test system: hepatic colonic carcinoma; test: Tumor weight in rats bearing transplanted hepatic colonic carcinoma; format: in vivo, rat
Excerpt: as §1
>94% by HPLC). The (6 R,S)FH 4 was weighed, dissolved in normal
saline, and injected daily by tail vein administration using the airfree
Protector device to prevent oxidative destruction of the folate.
as §2, §3, §4, §5

[4] = test system: 5,10-CH2 FH4 and FH4 levels in liver tumor; test: Folate assay (5,10-CH2 FH4 and FH4) in liver tumors of rats; format: in vivo, rat; details: 30 mg/kg each, 24 h after last injection
Excerpt: as §1, §2, §3, §4, §5, §6

[5] = Dimedone trapping of labile 14CH2O group on dilution; format: physicochemical; details: 46,664 DPM diluted to 1 ml in H2O, 37° C.
Excerpt: This requirement for a large excess of formaldehyde to shift the equilibrium between FH4 and CH2 FH4 (Eq. 1) was found by the inventors to
be independent of temperature, pH or the formaldehyde content of charcoal isolation, the presence of air exposure, or the presence of reducing agents. In addition, [11-^14 C]CH2 FH4 prepared as described (Moran et al., Proc. Natl. Acad. Sci. USA 76:1456-60 (1979)), and DEAE-purified (as the concentrated material) of excess ^14 CH2 O, was confirmed to have a labile ^14 CH2 O group by dimedone trapping.

[6] = patient four, 25 min after initiation of 15.0 g L-serine i.v.
[7] = patient four, 82 min after initiation of 15.0 g L-serine i.v.
[8] = patient two, 22 min after initiation of 15.0 g L-serine i.v.
[9] = patient two, 65 min after initiation of 15.0 g L-serine i.v.
[10] = separate confirmatory experiment, 6 rats/group

With `NCC(=O)O` [glycine] the “Clinical effect, third patient” value (breast cancer) was “rapid response to 5-FU therapy”.

In the case of `Nc1nc2ncc(CNc3ccc(C(=O)N[C@@H](CCC(=O)O)C(=O)O)cc3)nc2c(=O)[nH]1` [folic acid], the “effect of addition to 5-FU therapy” value (gastrointestinal cancers) is given as “increase in toxicity without improved response rates”.

For `N[C@@H](CO)C(=O)O` [L-serine], the “Ratio of FH4/CH2 FH4” value ([1]; patient four, 25 min) was 2.9, the “CH2 FH4” value [1, 6] was 0.396 and the FH4 [1, 6] was 1.128. For the same compound, the “Ratio of FH4/CH2 FH4” value ([1]; patient four, 82 min) was 3.0, the “CH2 FH4” value [1, 7] was 0.475 and the FH4 [1, 7] was 1.420. The “Ratio of FH4/CH2 FH4” value ([1]; patient two, 22 min) was 3.4, the “CH2 FH4” value [1, 8] was 0.253 and the FH4 [1, 8] was 0.854. For the same compound, the “Ratio of FH4/CH2 FH4” value ([1]; patient two, 65 min) was 2.7, the “CH2 FH4” value [1, 9] was 0.340 and the FH4 [1, 9] was 0.907. The “Clinical effect, third patient” value (breast cancer) was “rapid acceleration of objective tumor growth and tumor symptoms”.

For `Cl.Cl.Nc1nc2c(c(=O)[nH]1)NC(CNc1ccc(C(=O)N[C@@H](CCC(=O)O)C(=O)O)cc1)CN2.O` (mixture of isomers) [(6R,S)-FH4, 5,6,7,8Tetrahydropteroyl-L-glutamic acid dihydrochloride monohydrate], the stability of powder ([2]; anaerobic conditions, room temperature) is listed as “stable even at room temperature, for a year or more”, the “stability under anaerobic conditions” value ([2]; anaerobic conditions) is listed as “completely stable” and the degradation of solution ([2]; in […], exposed to air) is listed as 90%. The TS (TS) was 7.13 p mole/g, the Tumor weight ([3]; Day 17 after transplantation, 30 mg/kg each, average of 3 rats, control 5.84) was 10.43 g and the “tumor growth, % of control tumor weight” value [3, 10] was 171%. For the same compound, the “tumor size (weight)” value [3, 10] was 6.0 ± 1.1 g, the “5,10-CH2 FH4” value ([4]; control 0.69) was 2.93 nmol/g and the FH4 ([4]; control 1.18) was 2.31 nmol/g.

For `Nc1nc2c(c(=O)[nH]1)N1[14CH2]N(c3ccc(C(=O)N[C@@H](CCC(=O)O)C(=O)O)cc3)CC1CN2` (stereo partly shown) [[11-^14 C]-CH2 FH4], the “label recoverable by chloroform extraction of dimedone (methone) product” value [5] was 67.8%.

Reference: patent US5376658A, “5,10-methylene-tetrahydrofolate as a modulator of a chemotherapeutic agent” (priority 1993, dated 1994)
